Our source for the MIC and IC50 values is ChEMBL document CHEMBL6103583, “Purified Monascus Pigments: Biological Activities and Mechanisms of Action” (J Nat Prod, 2025).

Broadly, the IC50 is the concentration at which inhibition is half-maximal.

Assay [1] relates to Klebsiella aerogenes. In words: Antibacterial activity against Enterobacter aerogenes KCCM 12177 assessed as reduction in bacterial growth incubated for 12 hrs by broth micro-dilution method. Type of assay: functional. (In general: In broth dilution the organism is exposed to a series of concentrations in liquid medium.)
In assay [2] the test system is Staphylococcus aureus. Nature of the assay: Antibacterial activity against Staphylococcus aureus KCCM 11817 assessed as reduction in bacterial growth incubated for 12 hrs by broth micro-dilution method. Format: functional.
In assay [3] the test system is Staphylococcus aureus. In words: Antibacterial activity against Staphylococcus aureus […] assessed as reduction in bacterial growth incubated for 12 hrs by broth micro-dilution method. Type of assay: functional.
The test system of assay [4] is Bacillus subtilis. In words: Antibacterial activity against Bacillus subtilis KCCM 11316 assessed as reduction in bacterial growth incubated for 12 hrs by broth micro-dilution method. Type of assay: functional.
Assay [5] has as its system Enterococcus faecalis. In words: Antibacterial activity against Enterococcus faecalis KCCM 11814 assessed as reduction in bacterial growth incubated for 12 hrs by broth micro-dilution method. Type of assay: functional.
Assay [6] has as its system Haemophilus influenzae. Nature of the assay: Antibacterial activity against Haemophilus influenzae KCCM 11903 assessed as reduction in bacterial growth incubated for 12 hrs by broth micro-dilution method. Type of assay: functional.
Assay [7] deals with Proteus vulgaris. In words: Antibacterial activity against Proteus vulgaris KCCM 11906 assessed as reduction in bacterial growth incubated for 12 hrs by broth micro-dilution method. Type of assay: functional.
The subject of assay [8] is Pseudomonas aeruginosa. Nature of the assay: Antibacterial activity against Pseudomonas aeruginosa KCCM 11328 assessed as reduction in bacterial growth incubated for 12 hrs by micro-dilution method. Type of assay: functional.
Assay [9] in a line: Antibacterial activity against Salmonella choleraesuis KCCM 11806 assessed as reduction in bacterial growth. Type of assay: functional, Salmonella enterica subsp. enterica serovar Choleraesuis. To be noted: Salmonella enterica.
Assay [10] concerns Salmonella typhimurium. Nature of the assay: Antibacterial activity against Salmonella Typhimurium KCCM 11806 assessed as reduction in bacterial growth incubated for 12 hrs by micro-dilution method. Format: functional, Salmonella enterica subsp. enterica serovar Typhimurium. To be noted: Salmonella enterica.
The test system of assay [11] is Shigella sonnei. In words: Antibacterial activity against Shigella sonnei KCCM 40253 assessed as reduction in bacterial growth incubated for 12 hrs by micro-dilution method. Format: functional.
The test system of assay [12] is Aspergillus niger. In words: Antifungal activity against Aspergillus niger KCCM 11239 assessed as reduction in […] incubated for 12 hrs by micro-dilution method. Type of assay: functional.
In assay [13] the test system is Candida albicans. Nature of the assay: Antifungal activity against Candida albicans KCCM 10231 assessed as reduction in […] incubated for 12 hrs by micro-dilution method. Format: functional.
Assay [14] relates to Penicillium citrinum. In words: Antifungal activity against Penicillium citrinum KCCM 11663 assessed as reduction in […] incubated for 12 hrs by micro-dilution method. Format: functional.
The test system of assay [15] is Penicillium digitatum. Nature of the assay: Antifungal activity against Penicillium digitatum KCCM 60140 assessed as reduction in […] incubated for 12 hrs by micro-dilution method. Type of assay: functional.
In assay [16] the test system is RAW264.7. In words: Antiinflammatory activity against mouse RAW264.7 cells assessed as inhibition of LPS-NO production incubated for 24 hrs by Griess reagent based assay. To be noted: RAW264.7, 24 h. Type of assay: functional, cell-based. A general note: Griess reagent forms a coloured azo dye with nitrite.
The subject of assay [17] is RAW264.7. In words: Antiinflammatory activity against mouse RAW264.7 cells assessed as inhibition of LPS-NO production by Griess reagent based assay. Type of assay: functional, cell-based.
Assay [18] relates to WiDr. In words: Antiproliferative activity against human WiDr cells assessed as reduction in cell growth incubated for 3 days by MTT assay. Format: functional, cell-based. To be noted: 72 h. A general note: Tetrazolium dyes change colour on reduction, which living cells bring about.
In assay [19] the test system is HEp-2. Nature of the assay: Antiproliferative activity against human HEp-2 cells assessed as reduction in cell growth incubated for 3 days by MTT assay. Format: functional, cell-based. To be noted: HEp-2, 72 h.
Assay [20] concerns HEp-2. In words: Antiproliferative activity against human HEp-2 cells assessed as reduction in cell viability incubated for 72 hrs by MTT assay. Format: functional, cell-based. To be noted: HEp-2, 72 h.
Assay [21] has as its system WiDr. In words: Antiproliferative activity against human WiDr cells assessed as reduction in cell viability incubated for 72 hrs by MTT assay. Type of assay: functional, cell-based.
Assay [22] deals with AGS. Nature of the assay: Antiproliferative activity against human AGS cells assessed as reduction in cell viability incubated for 24 hrs by MTT assay. Type of assay: functional, cell-based.
Assay [23] relates to BGC-823. Nature of the assay: Antiproliferative activity against human BGC-823 cells assessed as reduction in cell viability incubated for 24 hrs by MTT assay. Type of assay: functional, cell-based. To be noted: BGC-823, 24 h.
Assay [24] concerns HeLa. Nature of the assay: Antiproliferative activity against human HeLa cells assessed as reduction in cell viability incubated for 24 hrs by MTT assay. Format: functional, cell-based.
Assay [25] has as its system HeLa. Nature of the assay: Antiproliferative activity against human HeLa cells assessed as reduction in cell viability incubated for 24 hrs under light irradiation by MTT assay. To be noted: light or radiation study. Type of assay: functional, cell-based.
Assay [26] has as its system HepG2. In words: Antiproliferative activity against human HepG2 cells assessed as reduction in cell viability incubated for 24 hrs by MTT assay. Type of assay: functional, cell-based. To be noted: HepG2, 24 h.
In assay [27] the test system is HT-29. Nature of the assay: Antiproliferative activity against human HT-29 cells assessed as reduction in cell viability incubated for 24 hrs by MTT assay. Format: functional, cell-based. To be noted: HT-29, 24 h.
For assay [28], the system named is MKN-45. In words: Antiproliferative activity against human MKN-45 cells assessed as reduction in cell viability incubated for 24 hrs by MTT assay. Type of assay: functional, cell-based. To be noted: MKN-45, 24 h.
In assay [29] the test system is SH-SY5Y. In words: Antiproliferative activity against human SH-SY5Y cells assessed as reduction in cell viability incubated for 24 hrs by MTT assay. Type of assay: functional, cell-based.

Converted amounts (≈) assume the structure as drawn.

Take `N[C@H](Cc1ccc(O)cc1)C(=O)O`: the MIC in assay [1] amounted to 16 µg/mL (≈ 88.3 µM); in assay [2] it was 16 µg/mL (≈ 88.3 µM); in assay [3] it was 8 µg/mL (≈ 44.2 µM); in assay [4] it was 4 µg/mL (≈ 22.1 µM); in assay [5] it was 4 µg/mL (≈ 22.1 µM); in [6], 16 µg/mL (≈ 88.3 µM). Besides, the MIC in assay [7] was 16 µg/mL (≈ 88.3 µM); in assay [8], 16 µg/mL (≈ 88.3 µM); in assay [9] it was 4 µg/mL (≈ 22.1 µM); in [10], 4 µg/mL (≈ 22.1 µM); in assay [11], 8 µg/mL (≈ 44.2 µM); in assay [12], 4 µg/mL (≈ 22.1 µM). In addition, the MIC in [13] came out at 16 µg/mL (≈ 88.3 µM); in assay [14] it was 4 µg/mL (≈ 22.1 µM); in assay [15] it was 32 µg/mL (≈ 177 µM).
Consider `C/C=C/C1=CC2=C/C(=C(/C#N)C(=O)CCCCC)C(C)(O)C(=O)C2=CO1` (configuration not stated), for which, in [16], the IC50 is 2.6 µM.
`C/C=C/C1=CC2=C(CO1)C(=O)[C@](C)(O)[C@@H](CC(=O)CCCCC)C2`: the half-inhibitory concentration (IC50) in assay [17] came to 22.6 µM; in assay [18] it was 55.3 µM; in assay [19], 77.6 µM.
For the compound `C/C=C/c1cc2c(cn1)C(=O)[C@](C)(O)[C@@H](CC(=O)CCCCC)C2`, the IC50 in assay [16] worked out at 57.1 µM.
Turning to `C/C=C/C1=CC2=CC3=C(C(=O)CCCCC)C(=O)O[C@@]3(C)[C@@H](O)C2=CO1`, the IC50 in assay [20] is 14.8 µM; in assay [21], 15.7 µM; in [16], 3.65 µM.
For the compound `C/C=C/C1=CC2=CC3=C(C(=O)CCCCC)C(=O)OC3(C)C(=O)C2=CN1` (configuration not stated), in [16], the IC50 was 12.5 µM.
Regarding `C/C=C/C1=CC2=CC3=C(C(=O)CCCCCCC)C(=O)O[C@@]3(C)[C@@](O)(CC(C)=O)C2=CO1`, the IC50 in assay [20] amounted to 8.7 µM; in assay [21], 11 µM; in assay [16], 2.72 µM.
`C/C=C/C1=CC2=CC3=C(C(=O)CCCCC)C(=O)O[C@@]3(C)[C@@](O)(CC(C)=O)C2=CO1`: the IC50 was determined as 10.4 µM in assay [20], 10.5 µM in assay [21] and 1.7 µM in [16].
As to `C/C=C/C1=CC2=CC3=C(C(=O)CCCCC)C(=O)O[C@@]3(C)C(=O)C2=CO1`, the IC50 came out at 107 µM in assay [20]; 109 µM in assay [21]; 7.98 µM in assay [22]; 12.6 µM in assay [23]; 93.7 µM in assay [24]; 24 µM in assay [25]. The IC50 in [26] turned out to be 44.2 µM; in [27], 36.7 µM; in [28] it was 14.3 µM; in assay [29] it was 30.9 µM; in [16] it was 21.2 µM.
`CCCCCCCCCC(=O)[C@H]1C(=O)O[C@]2(C)C(=O)C=C3C=C(CC(C)OC(C)=O)OC=C3[C@H]12` (some centres not stated): the IC50 in assay [16] stood at 16.6 µM.
